Results taken from PMC10233829 (ACS Omega, 2023).
Converted amounts (≈) assume the structure as drawn.

How the values were obtained:
PC3 cells = test: MTT assay, cytotoxic activity; type: cell-based, human; details: MTT, 72 h
Procedure, shortened: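 PC3 cells were grown at 37 °C/5% CO2 and exposed to test compounds. Viability came from MTT reduction, as test absorbance over untreated-control absorbance × 100%.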

[1] = test system: IL-6 level in HaCaT cells; test: Interleukin-6 ELISA; type: cell-based, human; details: IC50 concentration, 72 h
Experimental: (§1) The level of interleukin-6 (IL-6) in PC3 and HaCaT cell lines was measured by commercial human IL-6 ELISA kits Diaclon SAS (Besancon Cedex, France). […] The untreated cells were used as the control. The IL-6 level in a cell culture supernatant was measured using an enzyme-linked immunosorbent assay in accordance with the manufacturer’s instruction. The experiment was repeated three times.

IL-6 level in PC3 cells = test: Interleukin-6 ELISA; type: cell-based, human; details: PC3, IC50 concentration, 72 h
Experimental: as §1

P. aeruginosa ATCC 15442 [2] = test: Bacterial growth curve assay (OD600, 18 h); type: cell-based, Pseudomonas aeruginosa; details: P. aeruginosa
S. aureus ATCC 6538 [3] = test: Bacterial growth curve assay (OD600, 18 h); type: cell-based, Staphylococcus aureus; details: S. aureus ATCC 6538, 0.1 μg/mL
[4] = test system: E. coli ATCC 25922 biofilm; test: Biofilm eradication assay (crystal violet); type: cell-based, Escherichia coli; details: 4 MIC
Experimental: (§2) Three bacterial strains E. coli ATCC 25922, P. aeruginosa ATCC 15442, and S. aureus ATCC 6538 were used to assign biofilm eradication properties of compounds 5, 10, 11, and CP as the reference drug. To quantify the biomass of the bacteria biofilm, the crystal violet method was used with some modifications.[52] The bacteria were incubated to the mid-log phase, diluted to 103 cfu/mL in brain–heart infusion medium, and seeded in a 96-well plate. Bacterial biofilms were formed by overnight incubation at 37 °C with rotation at 140 rpm. After biofilm formation, all wells were washed with PBS to remove nonadherent bacteria cells. […] The biofilms with tested substances were incubated for 20 h at 37 °C with shaking at 140 rpm. The bacterial biofilm was stained with 0.1% (v/v) CV for 10 min. Afterward, the biofilm was rinsed with PBS and dried. To solubilize the adsorbed crystal violet, wells with stained biofilms were incubated in 30% acetic acid. To estimate the total biofilm biomass, optical density (OD) of the resulting solution was measured at 595 nm. Biofilm assays were repeated at least three times on different days, with two technical replicates assessed each time. A minimum eradication concentration (MBEC) was determined as the lowest concentration of compound, which could damage ≥50% of the formed biofilm structure.

[5] = test system: S. aureus ATCC 6538 biofilm; test: Biofilm eradication assay (crystal violet); type: cell-based, Staphylococcus aureus; details: 4–2 MIC
Experimental: as §2

S. aureus NCTC 4163 = test: MIC, twofold microdilution, standard strain; type: cell-based; details: Staphylococcus aureus, NCTC4163, 18 h
S. aureus ATCC 25923 = test: MIC, twofold microdilution, standard strain; type: cell-based; details: Staphylococcus aureus, ATCC25923, 18 h
S. aureus ATCC 6538 [6] = test: MIC, twofold microdilution, standard strain; type: cell-based, Staphylococcus aureus; details: Staphylococcus aureus, ATCC6538; standard strain, 18 h
S. aureus ATCC 29213 = test: MIC, twofold microdilution, standard strain; type: cell-based; details: Staphylococcus aureus, ATCC29213, 18 h
[7] = test system: S. epidermidis ATCC 12228; test: MIC, twofold microdilution, standard strain; type: cell-based; details: Staphylococcus epidermidis, ATCC12228, 18 h
[8] = test system: S. epidermidis ATCC 35984; test: MIC, twofold microdilution, standard strain; type: cell-based; details: Staphylococcus epidermidis, ATCC35984, 18 h
P. aeruginosa ATCC 15442 [9] = test: MIC, twofold microdilution, standard strain; type: cell-based, Pseudomonas aeruginosa; details: Pseudomonas aeruginosa, ATCC15442; standard strain, 18 h
E. coli ATCC 25922 = test: MIC, twofold microdilution, standard strain; type: cell-based, Escherichia coli; details: Escherichia coli, ATCC25922; standard strain, 18 h
S. aureus 180 = test: MIC, twofold microdilution, clinical strain; type: cell-based; details: Staphylococcus aureus, 18 h
S. aureus 5595 = test: MIC, twofold microdilution, clinical strain; type: cell-based; details: Staphylococcus aureus, 18 h
S. aureus T5595 = test: MIC, twofold microdilution, clinical strain; type: cell-based, Staphylococcus aureus; details: Staphylococcus aureus, T5595, 18 h
S. aureus T5591 = test: MIC, twofold microdilution, clinical strain; type: cell-based, Staphylococcus aureus; details: Staphylococcus aureus, T5591, 18 h
S. epidermidis 4341 = test: MIC, twofold microdilution, clinical strain; type: cell-based; details: Staphylococcus epidermidis, 18 h
S. epidermidis 5253 = test: MIC, twofold microdilution, clinical strain; type: cell-based, Staphylococcus epidermidis; details: Staphylococcus epidermidis, 5253, 18 h
S. epidermidis KR4243/1 = test: MIC, twofold microdilution, clinical strain; type: cell-based; details: Staphylococcus epidermidis, 18 h
S. pasteuri KR 4358 = test: MIC, twofold microdilution, clinical strain; type: cell-based; details: Staphylococcus pasteuri, KR4358, 18 h
P. aeruginosa 37 = test: MIC, twofold microdilution, clinical strain; type: cell-based; details: Pseudomonas aeruginosa, 18 h
P. aeruginosa 659 = test: MIC, twofold microdilution, clinical strain; type: cell-based; details: Pseudomonas aeruginosa, 18 h
E. coli 951 = test: MIC, twofold microdilution, clinical strain; type: cell-based; details: Escherichia coli, 18 h
E. coli 520 = test: MIC, twofold microdilution, clinical strain; type: cell-based; details: Escherichia coli, 18 h
E. coli 600 = test: MIC, twofold microdilution, clinical strain; type: cell-based, Escherichia coli; details: Escherichia coli, 600, 18 h
E. cloacae 8 = test: MIC, twofold microdilution, clinical strain; type: cell-based, Escherichia cloacae; details: Enterobacter cloacae, 8; clinical strain, 18 h
K. pneumoniae 28 = test: MIC, twofold microdilution, clinical strain; type: cell-based; details: Klebsiella pneumoniae, 18 h
K. pneumoniae 510 = test: MIC, twofold microdilution, clinical strain; type: cell-based, Klebsiella pneumoniae; details: Klebsiella pneumoniae, 510; clinical strain, 18 h
M. tuberculosis H37Rv = test: Tuberculostatic activity, Microplate Alamar Blue Assay (MIC); type: cell-based, Mycobacterium tuberculosis; details: Mycobacterium tuberculosis, H37RV; MABA; read-out: MIC M. tuberculosis H37Rv
[10] = test system: M. tuberculosis Spec. 192; test: as above; type: cell-based; details: Mycobacterium tuberculosis, MABA, read-out: MIC M. tuberculosis Spec. 192 (sensitive to tuberculostatics)
M. tuberculosis Spec 210 = test: microbe, parasite or virus in culture; type: cell-based, Mycobacterium tuberculosis; details: M. tuberculosis Spec. 210
S. aureus DNA gyrase = S. aureus DNA gyrase (Staphylococcus aureus, UniProt P0A0K8+P20831); test: biochemical; details: supercoiling of relaxed pBR322
S. aureus DNA gyrase, sequence (P0A0K8 whole entry): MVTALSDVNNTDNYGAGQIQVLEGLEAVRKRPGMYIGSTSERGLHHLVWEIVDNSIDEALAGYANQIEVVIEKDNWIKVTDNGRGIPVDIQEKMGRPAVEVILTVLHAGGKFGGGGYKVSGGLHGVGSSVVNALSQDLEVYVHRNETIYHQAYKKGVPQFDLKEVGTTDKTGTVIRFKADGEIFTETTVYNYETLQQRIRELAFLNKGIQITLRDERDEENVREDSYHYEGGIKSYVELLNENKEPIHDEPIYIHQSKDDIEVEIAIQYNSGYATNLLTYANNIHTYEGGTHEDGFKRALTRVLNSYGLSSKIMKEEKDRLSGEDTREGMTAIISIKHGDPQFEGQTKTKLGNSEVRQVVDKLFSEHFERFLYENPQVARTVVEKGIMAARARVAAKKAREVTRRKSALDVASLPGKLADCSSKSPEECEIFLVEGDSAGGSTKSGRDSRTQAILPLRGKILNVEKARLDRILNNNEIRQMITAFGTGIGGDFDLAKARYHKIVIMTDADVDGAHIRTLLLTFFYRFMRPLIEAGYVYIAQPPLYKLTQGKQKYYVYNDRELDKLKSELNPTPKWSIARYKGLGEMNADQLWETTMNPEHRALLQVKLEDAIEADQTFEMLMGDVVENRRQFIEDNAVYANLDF
S. aureus DNA gyrase, sequence (P20831 whole entry): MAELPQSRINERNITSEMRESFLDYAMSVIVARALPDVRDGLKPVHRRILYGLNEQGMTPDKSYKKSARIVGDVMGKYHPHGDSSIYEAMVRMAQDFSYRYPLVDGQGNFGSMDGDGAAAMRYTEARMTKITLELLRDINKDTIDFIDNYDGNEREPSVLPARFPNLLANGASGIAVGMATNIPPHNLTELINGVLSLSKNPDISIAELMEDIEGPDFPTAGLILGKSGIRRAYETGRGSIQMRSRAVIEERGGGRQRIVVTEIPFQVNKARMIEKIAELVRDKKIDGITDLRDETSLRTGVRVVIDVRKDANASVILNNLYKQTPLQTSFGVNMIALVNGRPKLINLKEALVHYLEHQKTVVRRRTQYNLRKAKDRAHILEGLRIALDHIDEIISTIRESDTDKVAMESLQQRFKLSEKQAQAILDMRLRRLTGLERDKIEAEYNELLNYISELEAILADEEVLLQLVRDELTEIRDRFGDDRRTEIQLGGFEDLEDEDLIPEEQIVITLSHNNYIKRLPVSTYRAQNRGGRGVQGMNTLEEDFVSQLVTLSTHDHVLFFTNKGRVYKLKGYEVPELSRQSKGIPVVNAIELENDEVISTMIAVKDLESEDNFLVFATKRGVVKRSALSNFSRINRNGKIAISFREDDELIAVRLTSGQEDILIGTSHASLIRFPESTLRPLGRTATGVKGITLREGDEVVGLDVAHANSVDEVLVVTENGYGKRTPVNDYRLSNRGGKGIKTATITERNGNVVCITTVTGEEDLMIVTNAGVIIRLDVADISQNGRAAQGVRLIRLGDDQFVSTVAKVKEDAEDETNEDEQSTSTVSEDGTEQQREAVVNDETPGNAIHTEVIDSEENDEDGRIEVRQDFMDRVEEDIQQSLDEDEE
Experimental: The enzymatic assay was carried using commercial topoisomerases type II as previously described by Alt et al.[55] with some modifications.
Briefly, 1 U of the enzyme (gyrase or topo IV, Inspiralis. Norwich, UK) isolated from S. aureus converts […] of relaxed pBR322 DNA to the supercoiled form (gyrase) or decatenates 200 ng of kinetoplast DNA (topo IV). […] The reactions were terminated by adding an equal volume of STEB buffer (40% sucrose, 100 mM Tris–HCl pH 8, 10 mM EDTA, and 0.5 mg/mL bromophenol blue), followed by extraction with 1 volume of chloroform/isoamyl alcohol (24:1). The samples were vortexed and centrifuged, and 20 μL of the aqueous phase of each sample was loaded onto a 1% agarose gel and left for 30 min prior to electrophoresis to allow diffusion of salt. […] Gels were stained with ethidium bromide and visualized under UV light in a transilluminator (ChemiDoc MP, Bio Rad).

[11] = target: T1, S. aureus topoisomerase IV (Staphylococcus aureus, UniProt P0C1S7+P0C1U9); test: Topoisomerase IV decatenation assay; type: biochemical; details: decatenation of kinetoplast DNA; read-out: IC50 S. aureus topoisomerase IV (converted)
T1 construct: purchased Inspiralis, Norwich, UK
T1 sequence (P0C1U9 whole entry): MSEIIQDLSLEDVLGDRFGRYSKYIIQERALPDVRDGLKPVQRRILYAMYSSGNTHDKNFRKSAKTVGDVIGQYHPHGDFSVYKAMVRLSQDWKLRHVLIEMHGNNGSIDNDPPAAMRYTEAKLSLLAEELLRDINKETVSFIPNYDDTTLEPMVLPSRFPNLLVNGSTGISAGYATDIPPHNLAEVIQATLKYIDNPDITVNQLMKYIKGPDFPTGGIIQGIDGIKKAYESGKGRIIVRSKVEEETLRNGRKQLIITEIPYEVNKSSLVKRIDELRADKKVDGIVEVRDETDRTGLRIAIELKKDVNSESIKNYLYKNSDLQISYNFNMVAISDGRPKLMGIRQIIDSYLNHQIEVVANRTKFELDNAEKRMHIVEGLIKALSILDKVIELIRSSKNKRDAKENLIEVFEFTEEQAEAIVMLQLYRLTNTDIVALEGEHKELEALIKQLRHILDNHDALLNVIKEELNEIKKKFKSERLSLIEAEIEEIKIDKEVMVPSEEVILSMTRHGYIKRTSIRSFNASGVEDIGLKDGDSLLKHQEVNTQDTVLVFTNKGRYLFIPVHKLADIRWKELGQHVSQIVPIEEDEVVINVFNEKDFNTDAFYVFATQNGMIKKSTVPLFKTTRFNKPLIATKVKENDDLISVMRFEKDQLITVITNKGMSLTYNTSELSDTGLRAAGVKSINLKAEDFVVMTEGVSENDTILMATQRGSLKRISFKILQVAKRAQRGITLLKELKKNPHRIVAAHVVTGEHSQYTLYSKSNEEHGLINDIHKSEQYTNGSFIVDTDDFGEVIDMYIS
T1 sequence (P0C1S7 whole entry): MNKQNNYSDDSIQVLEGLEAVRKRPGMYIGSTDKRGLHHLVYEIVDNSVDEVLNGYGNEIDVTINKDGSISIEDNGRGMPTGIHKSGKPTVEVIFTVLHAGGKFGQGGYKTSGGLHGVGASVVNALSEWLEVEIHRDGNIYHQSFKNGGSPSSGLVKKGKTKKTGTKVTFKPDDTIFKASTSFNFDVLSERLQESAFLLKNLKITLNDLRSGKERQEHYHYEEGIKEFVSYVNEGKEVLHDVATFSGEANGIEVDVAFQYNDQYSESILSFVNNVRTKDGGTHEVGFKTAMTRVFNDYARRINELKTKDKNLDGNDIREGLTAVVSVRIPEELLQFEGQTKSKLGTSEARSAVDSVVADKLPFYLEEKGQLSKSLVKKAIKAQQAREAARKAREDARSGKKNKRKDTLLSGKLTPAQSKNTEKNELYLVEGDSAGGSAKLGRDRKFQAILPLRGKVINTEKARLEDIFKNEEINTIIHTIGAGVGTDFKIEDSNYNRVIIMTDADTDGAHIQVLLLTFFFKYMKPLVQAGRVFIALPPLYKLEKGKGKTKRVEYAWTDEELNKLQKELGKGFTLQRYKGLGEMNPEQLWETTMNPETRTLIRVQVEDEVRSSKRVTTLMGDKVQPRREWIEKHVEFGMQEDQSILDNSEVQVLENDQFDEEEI

[12] = MTT assay, cytotoxic activity; type: cell-based; details: human, HaCaT cells (immortal keratinocytes); MTT, 72 h, normal cell line; read-out: IC50 HaCaT
Procedure, shortened: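 MTT assay on cells grown at 37 °C/5% CO2. Viability is expressed as relative MTT reduction: test absorbance divided by untreated-control absorbance, ×100%.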

[13] = test system: Staphylococci (standard strains); test: MIC, standard Gram-positive strains as a panel; type: cell-based, S. aureus, S. epidermidis
[14] = test system: P. aeruginosa ATCC 15442 and E. coli ATCC 25922; test: MIC, standard Gram-negative rods as a panel; type: cell-based; details: P. aeruginosa ATCC 15442, E. coli ATCC 25922; read-out: MIC against standard Gram-negative rods (range over strains)
[15] = test system: clinical bacterial strains; test: MIC, clinical isolates as groups of strains; type: cell-based; details: S. aureus 180 and 5595

| SMILES | IC50 (PC3 cells; Homo sapiens, PC-3, 72 h) [µM] | MIC (S. aureus NCTC 4163) [µg/mL] | MIC (S. aureus ATCC 25923) [µg/mL] | MIC (S. aureus ATCC 6538 [6]) [µg/mL] | MIC (S. aureus ATCC 29213) [µg/mL] | MIC [7] [µg/mL] | MIC [8] [µg/mL] | MIC (P. aeruginosa ATCC 15442 [9]) [µg/mL] | MIC (E. coli ATCC 25922) [µg/mL] | MIC (S. aureus 180) [µg/mL] | MIC (S. aureus 5595) [µg/mL] | MIC (S. aureus T5595) [µg/mL] | MIC (S. aureus T5591) [µg/mL] | MIC (S. epidermidis 4341) [µg/mL] | MIC (S. epidermidis 5253) [µg/mL] | MIC (S. epidermidis KR4243/1) [µg/mL] | MIC (S. pasteuri KR 4358) [µg/mL] | MIC (P. aeruginosa 37) [µg/mL] | MIC (P. aeruginosa 659) [µg/mL] | MIC (E. coli 951) [µg/mL] | other results |
| --- | --- | --- | --- | --- | --- | --- | --- | --- | --- | --- | --- | --- | --- | --- | --- | --- | --- | --- | --- | --- | --- |
| O=C(O)c1cn(C2CC2)c2cc(N3CCNCC3)c(F)cc2c1=O [CP, ciprofloxacin, reference compound] | > 100 |  |  |  |  |  |  |  |  |  |  |  |  |  |  |  |  |  |  |  | IC50 (PC3 cells): 100 ± 3.6 µM; effect on IL-6 in human keratinocytes [1]: stimulated human keratinocytes to produce IL-6; decrease of IL-6 release as compared to the control (IL-6 level in PC3 cells): 2.4 times; lag phase elongated up to (P. aeruginosa ATCC 15442 [2]; 0.05 μg/mL): up to 14 h; elongation of the exponential phase to (P. aeruginosa ATCC 15442 [2]; 0.03–0.006 μg/mL): 9 h; bacterial growth limited up to (S. aureus ATCC 6538 [3]): up to 12 h; eradication of the biofilm formed by E. coli [4]: approx. 20%; elimination of the mature biofilm of S. aureus ATCC 6538 [5]: 19–25% |
| C=CC(=O)N1CCN(c2cc3c(cc2F)c(=O)c(C(=O)O)cn3C2CC2)CC1 [Compound 1, 7-(4-Acryloyl-piperazin-1-yl)-1-cyclopropyl-6-fluoro-4-oxo-1,4-dihydro-quinoline-3-carboxylic Acid] | 68.7 ± 3.4 | 0.05 (≈ 0.13 µM) | 0.05 (≈ 0.13 µM) | 0.05 (≈ 0.13 µM) | 0.1 (≈ 0.259 µM) | 0.1 (≈ 0.259 µM) | 0.05 (≈ 0.13 µM) | 3.2 (≈ 8.3 µM) | 0.1 (≈ 0.259 µM) | 0.8 (≈ 2.08 µM) | 0.8 (≈ 2.08 µM) | 0.4 (≈ 1.04 µM) | 0.8 (≈ 2.08 µM) | > 25.6 | > 25.6 | 0.4 (≈ 1.04 µM) | 0.4 (≈ 1.04 µM) | > 25.6 | > 25.6 | > 25.6 | MIC (E. coli 520): 1.6 µg/mL (≈ 4.15 µM); MIC (E. coli 600): > 25.6 µg/mL; MIC (E. cloacae 8): 3.2 µg/mL (≈ 8.3 µM); MIC (K. pneumoniae 28): > 25.6 µg/mL; MIC (K. pneumoniae 510): > 25.6 µg/mL; MIC (M. tuberculosis H37Rv): 4 µg/mL (≈ 10.4 µM); MIC [10]: 4 µg/mL (≈ 10.4 µM); fold more effective than the reference tuberculostatics (M. tuberculosis Spec 210): 8–32 fold; IC50 (S. aureus DNA gyrase): 23.9 µM; IC50 [11]: 25.9 µM; IC50 at 72 h [12]: 100 ± 1.2 µM; times higher potency than CP ([13]; S. aureus NCTC 4163 and ATCC 25923): 5–10 times; MIC ([13]; read-out: MIC toward standard Staphylococci (range over strains)): 0.05 to 0.4 µg/mL (≈ 0.13 to 1.04 µM); fold more active than CP toward standard Staphylococci ([13]; standard Gram-positive strains of Table 1): 1.25–10 fold; MIC [14]: ≤ 1 µg/mL; share of CP inhibitory activity [15]: 62.5% |
| O=C(O)c1cn(C2CC2)c2cc(N3CCN(CCCCC(=O)N4CCN(c5cc6c(cc5F)c(=O)c(C(=O)O)cn6C5CC5)CC4)CC3)c(F)cc2c1=O [Compound 19, CP–Pentanoyl–CP Dimer] | 71.4 ± 3.2 | 0.4 (≈ 0.537 µM) | 0.8 (≈ 1.07 µM) | 0.4 (≈ 0.537 µM) | 0.8 (≈ 1.07 µM) | 0.8 (≈ 1.07 µM) | 0.8 (≈ 1.07 µM) | 3.2 (≈ 4.3 µM) | 0.4 (≈ 0.537 µM) | 1.6 (≈ 2.15 µM) | 0.8 (≈ 1.07 µM) | 1.6 (≈ 2.15 µM) | 0.8 (≈ 1.07 µM) | > 25.6 | > 25.6 | 1.6 (≈ 2.15 µM) | 1.6 (≈ 2.15 µM) | > 25.6 | 25.6 (≈ 34.4 µM) | 25.6 (≈ 34.4 µM) | MIC (E. coli 520): 3.2 µg/mL (≈ 4.3 µM); MIC (E. coli 600): 3.2 µg/mL (≈ 4.3 µM); MIC (E. cloacae 8): 3.2 µg/mL (≈ 4.3 µM); MIC (K. pneumoniae 28): > 25.6 µg/mL; MIC (K. pneumoniae 510): > 25.6 µg/mL; MIC (M. tuberculosis H37Rv): 8 µg/mL (≈ 10.7 µM); MIC [10]: 8 µg/mL (≈ 10.7 µM); fold more effective than the reference tuberculostatics (M. tuberculosis Spec 210): 8–32 fold; IC50 at 72 h [12]: 72.9 ± 5.7 µM; MIC [14]: ≤ 1 µg/mL; share of CP inhibitory activity [15]: 62.5%; melting point: 170.3 to 171.9 °C |
